Among the data in patent US7605155B2, “Substituted pyrazolo[1,5-a]pyrimidines as protein kinase inhibitors” (priority 2002, dated 2009) are IC50 values, retold here.

The term IC50 denotes the point on the concentration scale where inhibition reaches its midpoint. A lower IC50 goes with inhibition by little substance.

This assay addresses CDK2 (either cyclin A or E-dependent) (Homo sapiens, UniProt P24941). The assay can be described thus: biochemical. An excerpt:
BACULOVIRUS CONSTRUCTIONS: Cyclins A and E were cloned into pFASTBAC (Invitrogen) by PCR, with the addition of a GluTAG sequence (EYMPME) at the amino-terminal end to allow purification on anti-GluTAG affinity columns. […] CDK2 was also cloned into pFASTBAC by PCR, with the addition of a haemaglutinin epitope tag at the carboxy-terminal end ([…]).
ENZYME PRODUCTION: Recombinant baculoviruses expressing cyclins A, E and CDK2 were infected into SF9 cells at a multiplicity of infection (MOI) of 5, for 48 hrs. Cells were harvested by centrifugation at 1000 RPM for 10 minutes. Cyclin-containing (E or A) pellets were combined with CDK2 containing cell pellets and lysed on ice for 30 minutes in five times the pellet volume of lysis buffer containing 50 mM Tris pH 8.0, 0.5% NP40, 1 mM DTT and protease/phosphatase inhibitors (Roche Diagnostics GmbH, Mannheim, Germany). Mixtures were stirred for 30-60 minutes to promote cyclin-CDK2 complex formation. Mixed lysates were then spun down at 15000 RPM for 10 minutes and the supernatant retained. 5 ml of anti-GluTAG beads (for one liter of SF9 cells) were then used to capture cyclin-CDK2 complexes. Bound beads were washed three times in lysis buffer. Proteins were competitively eluted with lysis buffer containing 100-200 ug/mL of the GluTAG peptide. Eluate was dialyzed overnight in 2 liters of kinase buffer containing 50 mM Tris pH 8.0, 1 mM DTT, 10 mM MgCl2, 100 uM sodium orthovanadate and 20% glycerol. Enzyme was stored in aliquots at −70° C.
IN VITRO KINASE ASSAY: CDK2 kinase assays (either cyclin A or E-dependent) were performed in low protein binding 96-well plates (Corning Inc, Corning, N.Y.). Enzyme was diluted to a final concentration of 50 μg/ml in kinase buffer containing 50 mM Tris pH 8.0, 10 mM MgCl2, 1 mM DTT, and 0.1 mM sodium orthovanadate. The substrate used in these reactions was a biotinylated peptide derived from Histone H1 (from Amersham, UK). The substrate was thawed on ice and diluted to 2 μM in kinase buffer. Compounds were diluted in 10% DMSO to desirable concentrations. For each kinase reaction, 20 μl of the 50 μg/ml enzyme solution (1 μg of enzyme) and 20 μl of the […] substrate solution were mixed, then combined with 10 μl of diluted compound in each well for testing. […] The reaction was allowed to run for 1 hour at room temperature. The reaction was stopped by adding 200 μl of stop buffer containing 0.1% Triton X-100, 1 mM ATP, 5 mM EDTA, and 5 mg/ml streptavidine coated SPA beads (from Amersham, UK) for 15 minutes. The SPA beads were then captured onto a 96-well GF/B filter plate (Packard/Perkin Elmer Life Sciences) using a Filtermate universal harvester (Packard/Perkin Elmer Life Sciences.). Non-specific signals were eliminated by washing the beads twice with 2M NaCl then twice with 2 M NaCl with 1% phosphoric acid. The radioactive signal was then measured using a TopCount 96 well liquid scintillation counter (from Packard/Perkin Elmer Life Sciences).
IC50 DETERMINATION: Dose-response curves were plotted from inhibition data generated, each in duplicate, from 8 point serial dilutions of inhibitory compounds. Concentration of compound was plotted against % kinase activity, calculated by CPM of treated samples divided by CPM of untreated samples. To generate IC50 values, the dose-response curves were then fitted to a standard sigmoidal curve and IC50 values were derived by nonlinear regression analysis. These kinase activities were generated by using cyclin A or cyclin E using the above-described assay.
The compound `Nc1cc(C2CCCNC2)nc2c(-c3ccc(CO)cc3)cnn12` (stereo not shown) returned an IC50 of 1400 nM.
The result for `Nc1cc(C2CCCNC2)nc2c(-c3cncs3)cnn12` (stereo not shown) reads 210 nM.
`CC(C)Cc1ncc(-c2cnn3c(N)cc(C4CCCNC4)nc23)s1` (stereo not shown) gave an IC50 of 1300 nM. Against the preceding compound, the IC50 is about 6.2-fold higher.
With `Nc1cc(C2CCCNC2)nc2c(-c3ncon3)cnn12` (stereo not shown) the figure was 2500 nM.
In the case of `N#CCc1ccc(-c2cnn3c(N)cc(C4CCCNC4)nc23)cc1` (stereo not shown), the IC50 stood at 12000 nM.
With `Nc1cc(C2CCCNC2)nc2c(-c3cscn3)cnn12` (stereo not shown) the figure was 10000 nM; with `Nc1c(Br)c(C2CCCNC2)nc2c(-c3ccc4c(c3)OCO4)cnn12` (stereo not shown), 570 nM; with `N#Cc1ccc(-c2cnn3c(N)c(Br)c(C4CCCNC4)nc23)cc1` (stereo not shown), 240 nM.
Take `Nc1c(Br)c(C2CCCNC2)nc2c(-c3cncs3)cnn12` (stereo not shown): the IC50 was 96 nM.
With `Nc1c(Br)c(C2CCCNC2)nc2c(-c3cscn3)cnn12` (stereo not shown) the figure was 5800 nM.
With `Cn1cc(-c2cnn3c(N)c(Br)c(N4CC[C@H](N)C4)nc23)cn1` the figure was 1200 nM; with `Nc1c(Br)c(C2CCCNC2)nc2c(-c3cnccn3)cnn12` (stereo not shown), 4700 nM; with `Cn1cc(-c2cnn3c(NC4CCCC4)cc(C4CCCNC4)nc23)cn1` (stereo not shown), 25000 nM.
With `Cn1cc(-c2cnn3c(NCc4ccccc4)cc(C4CCCNC4)nc23)cn1` (stereo not shown), the IC50 stood at 31000 nM.
`CCNc1c(Br)c(C2CCCNC2)nc2c(-c3cnn(C)c3)cnn12` (stereo not shown) gave an IC50 of 5700 nM.
As to `Nc1cc(C2CCCNC2)nc2c(-c3cnoc3)cnn12` (stereo not shown), the IC50 came out at 790 nM.
In turn, `Nc1cc(C2CCCNC2)nc2c(-c3cnn(CCO)c3)cnn12` (stereo not shown) registered an IC50 of 4300 nM.
Regarding `CC(C)n1cc(-c2cnn3c(N)cc(C4CCCNC4)nc23)cn1` (stereo not shown), the IC50 amounted to 8300 nM.
With `Cn1cc(-c2cnn3c(N)c(I)c(C4CCCNC4)nc23)cn1` (stereo not shown) the figure was 20 nM.
For `N#Cc1ccc(-c2cnn3c(N)cc(C4CCCNC4)nc23)cn1` (stereo not shown), the IC50 is 2300 nM.
In turn, `N#Cc1ccc(-c2cnn3c(N)c(Br)c(C4CCCNC4)nc23)cn1` (stereo not shown) had an IC50 of 880 nM.
The compound `Nc1c(Br)c(C2CCCNC2)nc2c(-c3cnoc3)cnn12` (stereo not shown) registered an IC50 of 160 nM. Compared with the last compound, the IC50 is about 5.5-fold lower.
In turn, `Nc1c(Br)c(C2CCCNC2)nc2c(-c3cnn(CCO)c3)cnn12` (stereo not shown) yielded an IC50 of 200 nM.
On to `N#Cc1cncc(-c2cnn3c(N)c(Br)c(C4CCCNC4)nc23)c1` (stereo not shown), for which the IC50 came out at 5800 nM.
`CCn1cc(-c2cnn3c(N)c(Br)c(C4CCCNC4)nc23)cn1` (stereo not shown) yielded an IC50 of 410 nM. Compared with the last compound, the IC50 is about 14-fold lower.
`CN(C)C(=O)Cn1cc(-c2cnn3c(N)c(Br)c(C4CCCNC4)nc23)cn1` (stereo not shown): 1400 nM corresponded to half-maximal inhibition (IC50).
Regarding `Cn1cc(-c2cnn3c(N)c(Br)c(C4CCCN(CCO)C4)nc23)cn1` (stereo not shown), the IC50 is 1750 nM. The IC50 values of the last two compounds are within 1.5-fold of each other.
`N#Cc1cc(-c2cnn3c(N)c(Br)c(C4CCCNC4)nc23)co1` (stereo not shown) displayed an IC50 of 140 nM.
In the case of `N#Cc1cc(-c2cnn3c(N)c(Cl)c(C4CCCNC4)nc23)co1` (stereo not shown), the IC50 was found to be 210 nM.
`Nc1cc(C2CCCNC2)nc2c(-c3coc(C=NO)c3)cnn12` (stereo not shown) yielded an IC50 of 40 nM.
`Nc1cc(C2CCCNC2)nc2c(-c3cn[nH]c3)cnn12` (stereo not shown) registered an IC50 of 1500 nM.
In the case of `COC(=O)[C@@H]1CC[C@H](c2cc(N)n3ncc(-c4cnn(C)c4)c3n2)CN1`, 14000 nM corresponded to half-maximal inhibition (IC50).
For `Cn1cc(-c2cnn3c(N)c(Br)c(CC4CNCCO4)nc23)cn1` (stereo not shown), the IC50 is 6100 nM.
`Cn1cc(-c2cnn3c(N)c(Br)c(CC4CNCCN4)nc23)cn1` (stereo not shown) gave an IC50 of 5700 nM.
For `Cn1cc(-c2cnn3c(N)cc(C4(F)CCCNC4)nc23)cn1` (stereo not shown), the IC50 was determined as 6000 nM.
Compound `Cn1cc(-c2cnn3c(N)c(Br)c(C4CCCCN4)nc23)cn1` (stereo not shown) returned an IC50 of 28000 nM. Compared with the last compound, the IC50 is about 4.7-fold higher.
With `Cn1cc(-c2cnn3c(N)c(Br)c(C4CNCCNC4)nc23)cn1` the figure was 720 nM; with `Cn1cc(-c2cnn3c(N)cc([C@H]4CC[C@@H](CO)NC4)nc23)cn1`, 12000 nM.
`C/C(=N\O)[C@@H]1CC[C@H](c2nc3c(-c4cnn(C)c4)cnn3c(N)c2Br)CN1` displayed an IC50 of 520 nM.
With `Cn1cc(-c2cnn3c(N)c(Br)c([C@H]4CCC[C@@H](N)C4)nc23)cn1` the figure was 440 nM.
In the case of `Cn1cc(-c2cnn3c(N)cc([C@@H]4CC[C@@H](N)C4)nc23)cn1`, the IC50 amounted to 5600 nM.
On to `Cn1cc(-c2cnn3c(N)cc([C@@H]4CC[C@H](N)C4)nc23)cn1`, for which it took 3700 nM to reach half-maximal inhibition (IC50).
For `Cn1cc(-c2cnn3c(N)c(Br)c([C@@H]4CC[C@@H](N)C4)nc23)cn1`, the IC50 was found to be 120 nM.
Turning to `Cn1cc(-c2cnn3c(N)c(Br)c([C@@H]4CC[C@H](N)C4)nc23)cn1`, the IC50 is 240 nM.
`CC(N)CCc1nc2c(-c3cnn(C)c3)cnn2c(N)c1Br` (stereo not shown) had an IC50 of 1200 nM.
`CC(C)N1CCNCC(c2nc3c(-c4cnn(C)c4)cnn3c(N)c2Br)C1` (stereo not shown) had an IC50 of 2600 nM.
For `CC(=O)N1CCNCC(c2nc3c(-c4cnn(C)c4)cnn3c(N)c2Br)C1` (stereo not shown), 2600 nM corresponded to half-maximal inhibition (IC50).
Compound `Cn1cc(-c2cnn3c(N)c(Br)c(C4CNCCN(S(C)(=O)=O)C4)nc23)cn1` (stereo not shown) had an IC50 of 3100 nM.
The compound `Cn1cc(-c2cnn3c(N)c(Br)c(CCNCc4ccccc4)nc23)cn1` displayed a concentration for half-maximal inhibition (IC50) of 3700 nM.
